Laboratory results: ChEMBL document CHEMBL1149858, “Degradation-promoters of cellular inhibitor of apoptosis protein 1 based on bestatin and actinonin” (Bioorg Med Chem, 2008)
Blank lines part the entries; values can stand above or below the molecule they belong to. Active and inactive are the calls of the source. No cut-off for these calls is given here.

How the values were obtained:
[1] = target: Baculoviral IAP repeat-containing protein 2 (Homo sapiens, UniProt Q13490); assay: Promotion of flag-tagged cIAP1 degradation in human HT1080 cells assessed as decrease in cIAPI production after 3 hrs; format: cell-based, HT-1080
[2] = test system: HT-1080; assay: Enhancement of cisplatin-induced apoptosis of human HT1080 cells at 10 uM; format: functional, cell-based
[3] = test system: HT-1080; assay: Enhancement of etoposide-induced apoptosis of human HT1080 cells at 10 uM; format: functional, cell-based
[4] = test system: HT-1080; assay: Enhancement of actinomycin D-induced apoptosis of human HT1080 cells at 10 uM; format: functional, cell-based
[5] = test system: HT-1080; assay: Enhancement of camptothecin-induced apoptosis of human HT1080 cells at 10 uM; format: functional, cell-based
[6] = test system: HT-1080; assay: Enhancement of anti-Fas antibody CH11-induced apoptosis of human HT1080 cells at 30 uM after 24 hrs; format: functional, cell-based

Chain of Baculoviral IAP repeat-containing protein 2 (Q13490 whole entry): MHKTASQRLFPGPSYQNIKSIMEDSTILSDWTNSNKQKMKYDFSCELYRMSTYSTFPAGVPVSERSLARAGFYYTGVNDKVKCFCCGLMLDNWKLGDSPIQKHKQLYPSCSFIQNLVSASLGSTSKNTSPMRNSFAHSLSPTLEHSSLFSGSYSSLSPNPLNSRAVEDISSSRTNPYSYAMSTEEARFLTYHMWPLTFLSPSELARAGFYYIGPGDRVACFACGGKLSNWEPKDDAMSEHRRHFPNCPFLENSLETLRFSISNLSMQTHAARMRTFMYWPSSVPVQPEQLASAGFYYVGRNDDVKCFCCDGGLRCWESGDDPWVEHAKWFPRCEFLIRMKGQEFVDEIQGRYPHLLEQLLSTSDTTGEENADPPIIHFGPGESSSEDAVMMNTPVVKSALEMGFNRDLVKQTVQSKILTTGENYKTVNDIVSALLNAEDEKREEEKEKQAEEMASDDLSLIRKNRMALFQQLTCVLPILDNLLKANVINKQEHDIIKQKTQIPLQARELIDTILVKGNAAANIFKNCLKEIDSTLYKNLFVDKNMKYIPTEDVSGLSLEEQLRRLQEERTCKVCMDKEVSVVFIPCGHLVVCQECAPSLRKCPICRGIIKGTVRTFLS

- IC50 [1]: > 20 µM
SMILES: CCCCC[C@H](CC(=O)NO)C(=O)N[C@H](C(=O)OC)C(C)(C)C

- Activity ([1]; HT-1080): inactive
SMILES: COC(=O)[C@H](CC(C)C)NC(=O)[C@H](N)CC(=O)NO

SMILES: CCCCC[C@H](CC(=O)NO)C(=O)N[C@@H](C)C(=O)OC
- Activity [2]: Active
- Activity [3]: Active
- Activity [4]: Active
- Activity [5]: Active

SMILES: COC(=O)[C@H](CC(C)C)NC(=O)[C@@H](O)[C@H](N)Cc1ccccc1
- Activity [6]: Active
- Activity [2]: Active
- Activity [3]: Active
- Activity [4]: Active
- Activity [5]: Active
